Reference: publication PMC4747835 (Journal of controlled release : official journal of the …, 2015)
Where two headings read alike, the source gives them in different places.

Tests used:
[1] = in vivo; settings: male, Sprague-Dawley, rat, 100 ug/kg
[2] = rat, in vivo
[3] = in vivo; cited from earlier work

CSCC[C@@H]1NC(=O)[C@H](CC(C)C)NC(=O)[C@H](CCCNC(=N)N)NC(=O)[C@H](CO)NC(=O)[C@@H]2CSSC[C@@H]3NC(=O)[C@H](CO)NC(=O)CNC(=O)[C@H]([C@@H](C)O)NC(=O)[C@H](CSSC[C@H](N)C(=O)N[C@@H](CCCCN)C(=O)NCC(=O)N[C@@H](CCCCN)C(=O)NCC(=O)N[C@@H](C)C(=O)N[C@@H](CCCCN)C(=O)N2)NC(=O)[C@H](CSSC[C@@H](C(N)=O)NC(=O)[C@H](CCCCN)NC(=O)CNC(=O)[C@H](CO)NC(=O)[C@H](CCCNC(=N)N)NC3=O)NC(=O)[C@H](CC(=O)O)NC(=O)[C@H](Cc2ccc(O)cc2)NC1=O [ziconotide, Ziconotide]
level at 0.25 h [1]: 992 ± 76.4 ng/mL | AUC0-6 in CSF [2]: 1.57 ± 0.44 µg·min/mL | Cmax in CSF [2]: 33.55 ± 7.39 ng/mL | Tmax in CSF [2]: 0.25 h | bioavailability (AUC0-6) in CSF, fold less than i.v administration [2]: ~ 3 fold | elimination rate constant in CSF [2]: 1.01 ± 0.34 h⁻¹ | AUC0-6 in CSF ([2]; iv): 4.98 ± 0.98 µg·min/mL | Cmax in CSF ([2]; iv): 37.78 ± 6.8 ng/mL | Tmax in CSF ([2]; iv): 2 h | occurrence of meningitis [3]: 3%
